How the values were obtained:
[1] = system: LoVo OXP cells; details: cited from earlier work
[2] = system: panel of human tumor cell lines (A431, 2008, HCT-15, LoVo, LoVo OXP, LoVo MDR); details: cited from earlier work
[3] = XPS Pt4f surface reduction of Pt(IV) to Pt(II) under X-ray irradiation; type: physicochemical; details: for % of Reduction: after 30 min irradiation, calculated from Pt(IV) abundances
Text: The Pt(IV) complexes were also characterized by X-ray photoelectron spectroscopy (XPS) in order to obtain information on the surface chemical composition and on the platinum speciation. Despite the surface sensitivity of the technique (topmost 5–8 nm), the analysis on homogeneous samples provides useful information on the chemical environment of all detected elements. […] Two doublets were found: one is attributed to Pt(II) (BE Pt4f7/2 = 72.9 ± 0.2 eV and BE Pt4f5/2 = 76.2 ± 0.2 eV), while the second doublet is attributed to Pt(IV) (BE Pt4f7/2 = 75.6 ± 0.2 eV and BE Pt4f5/2 = 79.0 ± 0.2 eV).
The Pt(IV)/Pt(II) relative abundance varies from case to case; moreover, if the X-ray degradation is monitored after 30 min exposure to the X-ray beam, an increase of the Pt(II) relative abundance is observed (Figure 8b).
X-ray Photoelectron Spectroscopy (XPS) analyses were run on a PHI 5000 Versa Probe II Scanning XPS Microprobe spectrometer (ULVAC PHI Inc., Kanagawa, Japan). Measurements were carried out using a monochromatic Al Kα source (X-ray spot 200 μm) at a power of 50.3 W. Wide scan and detailed spectra (Pt4f, C1s, Cl2p, N1s, O1s) were acquired in Constant Analyzer Energy (CAE) mode with a pass energy of 117.40 and 29.35 eV, respectively. An electron gun was used for charge compensation (1.0 V, 20.0 μA). Due to the X-ray sensitivity of Pt(IV) complexes, the Pt4f spectral region was acquired first. X-ray degradation kinetics experiments were performed analyzing the same sample area after 30 min. Data processing was performed by using the MultiPak software v. 9.8.0.19.

[4] = system: LoVo-OXP cancer cells; assay: MTT cytotoxicity test, 72 h, oxaliplatin-resistant cells; type: cell-based, human; details: LoVo OXP
Text: (§1) Human colon (HCT-15 and LoVo) and pancreatic (PSN-1) carcinoma cell lines were obtained from the American Type Culture Collection (ATCC, RocKville, MD). The 2008 human ovarian cancer cells were kindly provided by Prof. G. Marverti (Dept. of Biomedical Science of Modena University, Italy). Human cervical carcinoma (A431) cells were kindly provided by Prof. F. Zunino (Division of Experimental Oncology B, Istituto Nazionale dei Tumori, Milan, Italy). […] Cell lines were maintained in the logarithmic phase at 37 °C in a 5% carbon dioxide atmosphere using RPMI-1640 or F-12 culture medium (Euroclone) containing 10% fetal calf serum (Euroclone, Milan, Italy), antibiotics (50 units per mL penicillin and 50 μg mL^−1 streptomycin), and 2 mM L-glutamine.
(§2) The growth inhibitory effect toward the tumor cell lines was evaluated by the MTT test. Briefly, 3-8·10^3 cells/well, depending upon the growth characteristics of the cell lines, were seeded in 96-well microplates in growth medium (100 µL) and then incubated at 37 °C in a 5% carbon dioxide atmosphere. After 24 h, the medium was removed and replaced with a fresh one containing the compound to be tested at the appropriate concentration. Triplicate cultures were established for each treatment. After 72 h, each well was treated with 10 µL of a 5 mg·mL^−1 MTT (3-(4,5-dimethylthiazol-2-yl)-2,5-diphenyltetrazolium bromide) saline solution and, after 5 h of incubation, 100 µL of a sodium dodecylsulfate (SDS) solution in HCl 0.01 M were added. Following an overnight incubation, the inhibition of cell growth induced by the tested complexes was evaluated by measuring the absorbance of each well at 570 nm using a Bio-Rad 680 microplate reader (Bio-Rad Laboratories S.r.l., Segrate (MI), Italy).

[5] = system: HCT-15 human colon carcinoma cells; assay: MTT cytotoxicity test, 72 h; type: cell-based; details: HCT-15, MTT
Experimental: (§3) The in vitro cytotoxic activities of compounds 1–6 were assayed on a panel of human cancer cell lines containing examples of pancreatic (PSN-1), colon (HCT-15 and LoVo), cervical (A431), and ovarian (2008) cancers. Cisplatin and oxaliplatin were used as reference compounds and were tested under the same experimental conditions.
as §1, §2

[6] = system: PSN-1 human pancreatic carcinoma cells; assay: MTT cytotoxicity test, 72 h; type: cell-based; details: PSN-1, MTT
Experimental: as §3, §1, §2

[7] = system: 2008 human ovarian cancer cells; assay: MTT cytotoxicity test, 72 h; type: cell-based; details: 2008, MTT
Experimental: as §3, §1, §2

[8] = system: A431 human cervical carcinoma cells; assay: MTT cytotoxicity test, 72 h; type: cell-based
Experimental: as §3, §1, §2

[9] = system: LoVo human colon carcinoma cells; assay: MTT cytotoxicity test, 72 h; type: cell-based
Experimental: as §3, §1, §2

[10] = Cyclic voltammetry, cathodic reduction potential in aqueous solution; type: physicochemical; details: values normalized vs. SCE; phosphate buffer pH 7.4, 5 mM NaCl, 5·10^−4 M complex, scan rate 0.020 V s^−1
Experimental: The electrochemical characterization of compounds 1–6, performed by using cyclic voltammetry (CV), was carried out with the aim of determining the cathodic reduction potentials in aqueous solution (Ep^c).
Cyclic voltammetry (CV) measurements were carried out with a potentiostat CHI 1230B (CH Instruments, Inc., Austin, TX, USA) in a standard three-electrode electrochemical cell. The working electrode was a glassy carbon (GC) electrode, the reference electrode was a KCl-saturated Ag/AgCl and the counter was a Pt sheet. The GC electrode was carefully polished with alumina powder, then rinsed with distilled water and dried, to obtain a reproducible surface for all the experiments. All the measurements, conducted in triplicate, were carried out in buffered aqueous solutions containing the Pt(IV) compound at a concentration of 5·10^−4 M in 10 mL phosphate buffer (PB, pH = 7.4, I = 0.1) and 5 mM NaCl as supporting electrolyte. A blank solution (without Pt(IV) complex) was also tested. All the peak potentials were measured with a scan rate of 0.020 V s^−1; the initial potential was chosen equal to the open-circuit potential and the scan direction was negative. All the CV plots were acquired after an equilibration time of 2 min in order to make the GC surface reproducible.

[11] = system: human A431 cancer cell spheroids; assay: Cytotoxicity towards 3D spheroids, acid phosphatase (APH) assay; type: cell-based; details: A431 3D spheroids, 72 h, APH assay
Text: The remarkable cell-killing effect observed against human A431 squamous cervical carcinoma two-dimensional (2D) cultured cells prompted us to evaluate the in vitro antitumor activity of compounds 1–6 on three-dimensional (3D) cell cultures. As opposed to 2D monolayer cultures, cells growing in 3D culture systems form spheroids that comprise cells in various stages. […] Such cellular heterogeneity resembles that of in vivo tumors, making 3D cell cultures more predictive than conventional 2D monolayer cultures in screening antitumor drugs.
Spheroid cultures were obtained by seeding 2.5 × 10^3 A431 cancer cells/well in a round bottom non-treated tissue culture 96 well-plate (Greiner Bio-one, Kremsmünster, Austria) in phenol red free RPMI-1640 medium (Sigma Chemical Co.) containing 10% fetal calf serum (FCS) and supplemented with 20% methyl cellulose stock solution.
An APH modified assay was used for determining cell viability in 3D spheroids, as previously described. IC50 values were calculated with a four parameter logistic (4-PL) model.

[12] = logPo/w by shake-flask method with ICP-MS Pt determination; type: physicochemical; details: n-octanol / 0.15 M KCl in water
[13] = system: panel of human cancer cell lines (PSN-1, HCT-15, LoVo, A431, 2008); assay: MTT cytotoxicity, average over the panel of human cancer cell lines; type: cell-based; details: mean over the cell line panel, 72 h
Experimental: as §3
[17, 30] Thus, the pharmacological activity decreases in the order 3 >> 1 ≈ 2 ≈ 4 > 5 > 6.
as §2

[14] = Stability in solution followed by 1H-NMR (solvent-assisted photoreduction); type: physicochemical; details: DMSO-d6, room temperature, not shielded from light
Text: (5.4–6.5 ppm). Most likely, compound 4 underwent a solvent-assisted reduction process favored by light, as previously observed for similar compounds such as cis,trans,cis-[PtCl2(OH)2(cis-1,4-DACH)] [19, 20]. […] This reduction/solvation could also be observed in other solvents, such as D2O and CD3OD.
As for compound 4, the reduction is probably fostered by the presence of axial chlorido ligand(s).
The ^13C NMR signals are influenced by the asymmetry of the complex with respect to the equatorial plane with two peaks at 125.4 and 125.2 ppm for the vinylic carbons, two signals at 60.2 and 59.3 ppm for the methynic carbons, and two signals at 33.1 and 32.6 ppm for the methylenic carbons (Figure S10).

[15] = system: cisplatin-resistant ovarian C13* cell line; design: method as in PMID 22788918; details: cited from earlier work
[16] = system: oxaliplatin-resistant colon LoVo-OXP cell line; design: method as in PMID 22788918; details: cited from earlier work

Compound	lipid droplets formation [1]	ability to overcome oxaliplatin resistance (LoVo vs LoVo-OXP) [2]	cytotoxic activity compared with cisplatin and oxaliplatin ([2]; panel of human tumor cell lines)	% Relative Abundance Pt(IV)/(II), After 30 min Irradiation ([3]; after 30 min X-ray irradiation)	% of Reduction [3] [%]	% Relative Abundance Pt(IV)/(II), As Irradiated ([3]; onset of the experiment)	IC50 [4] [nM]	IC50 [5] [nM]	IC50 [6] [nM]	IC50 [7] [nM]	IC50 [8] [nM]	IC50 [9] [nM]	Cathodic reduction potential Ep^c [10] [V]	IC50 [11] [nM]	logPo/w [12]	IC50 [13] [nM]	stability in solution (reduction to Pt(II) / solvation) [14]	activity against cell line [15]	activity against cell line [16]
NC1CC=CCC1N.O=C1[O][Pt][O]C1=O (racemic) [[Pt(OXA)(DACHEX)]]	induced lipid droplets formation	equally active	better than that of cisplatin and comparable to or better than that of oxaliplatin	–	–	–	–	–	–	–	–	–	–	–	–	–	–	–	–
cis,trans,cis-[Pt(OXA)(OH)2(DACHEX)] [Complex 1]	–	–	–	48/52	44	86/14	> 2000	440 ± 100	3150 ± 800	720 ± 100	490 ± 200	840 ± 300	−1.05	5800 ± 800	−3.05	–	–	–	–
O=C1[O][Pt]2([NH][C@@H]3CCCC[C@H]3[NH]2)[O]C1=O [OXP, oxaliplatin, reference compound]	–	–	–	–	–	–	14300 ± 2100	1150 ± 400	7900 ± 3500	1530 ± 900	3800 ± 1300	1100 ± 600	–	36300 ± 1200	–	3100	–	–	–
[NH2][Pt]([NH2])([Cl])[Cl] [CDDP, cisplatin, reference compound]	–	–	–	–	–	–	–	15300 ± 2600	16600 ± 4200	2230 ± 100	1430 ± 400	7600 ± 1500	–	58300 ± 900	–	8600	–	–	–
NC1CC=CCC1N.O=C1[O][Pt]([Cl])([Cl])[O]C1=O (racemic) [Complex 4, cis,trans,cis-[Pt(OXA)Cl2(DACHEX)]]	–	–	–	–	67	–	> 2000	1170 ± 200	3080 ± 1100	420 ± 100	430 ± 200	390 ± 30	−0.72	9900 ± 2600	–	–	quite unstable	–	–
NC1CCC(N)CC1.[Cl][Pt+2][Cl] (stereo not drawn) [Kiteplatin, [PtCl2(cis-1,4-DACH)]]	–	–	–	–	–	–	–	–	–	–	–	–	–	–	–	–	–	active	active
CC(=O)[O][Pt]1([O]C(C)=O)[O]C(=O)C(=O)[O]1.NC1CC=CCC1N [Complex 2, cis,trans,cis-[Pt(OXA)(AcO)2(DACHEX)]]	–	–	–	–	65	–	> 2000	1270 ± 500	2850 ± 700	330 ± 500	550 ± 100	590 ± 100	−1.03	3400 ± 900	–	–	–	–	–

Reference: article PMC7177638 (International Journal of Molecular Sciences, 2020)
